Measurements: patent US20260258086A1 (priority 2021, published 2026)
Read-outs that look alike come from different tables or passages of the source. Numbered stars: 1 amine (or outer) side, 2 acyl side, 3 side chain; on linkers, the order of the positions; unused ones are H or OH. Bridge positions count the residues as written; N and C are the ends. Square brackets hold non-standard residues; d marks the D form. Peptide text beside a SMILES is read from it. X4 = O=C([C@@H](Cc1c([*:3])[nH]c2ccc(O)cc12)N[*:1])[*:2]; X2 = O=C([C@@H](Cc1c([*:3])[nH]c2ccccc12)N[*:1])[*:2]; Ile(4R-OH,5-OH) = C[C@H]([C@H](N)C(=O)O)[C@@H](O)CO; X5 = C[C@@H](S[*:3])[C@H](N[*:1])C(=O)[*:2]; X1 = C[C@H](S[*:3])[C@H](N[*:1])C(=O)[*:2]; X3 = CS[C@H](C)[C@H](N[*:1])C(=O)[*:2]; Gly(cPent) = N[C@H](C(=O)O)C1CCCC1; Nva(3-Et) = CCC(CC)[C@H](N)C(=O)O; Hyp = O=C(O)[C@@H]1C[C@@H](O)CN1; Pen = CC(C)(S)[C@H](N)C(=O)O

Legend:
[1] = tested on: HEK293 cells
[2] = tested on: CHO cells
[3] = molecular target: Pol II (Homo sapiens, UniProt P24928); assay: biochemical; type: biochemical
[4] = tested on: HeLa cells
[5] = tested on: HepG2 cells
[6] = tested on: white mice; settings: mouse, in vivo; cited from earlier work
[7] = molecular target: calf thymus RNAP II (Bos taurus, UniProt G3MZY8); settings: cited from earlier work
[8] = tested on: SK-BR-3 cells; type: cell-based; settings: read-out: IC50, cell viability on SK-BR-3 cells

Molecule | IC50 [1] [nM] | IC50 [2] [nM] | LD50 [6] [mg/kg] | other results
CC[C@H](C)[C@@H]1NC(=O)CNC(=O)[C@H]2Cc3c([nH]c4ccccc34)S[C@@H](C)[C@H](NC(=O)CNC1=O)C(=O)N[C@@H](CC(N)=O)C(=O)N1C[C@H](O)C[C@H]1C(=O)N[C@@H]([C@@H](C)[C@@H](O)CO)C(=O)N2 [Compound I(i), (2R,3S)-β-Methyl-Cys^8-Dideoxyamanitin] (cyclo(GIG[X1]N[Hyp][Ile(4R-OH,5-OH)][X2]); thioether 4-8) | 240 ± 50 | 610 ± 170 |  | 
CC[C@H](C)[C@@H]1NC(=O)CNC(=O)[C@H]2Cc3c([nH]c4ccccc34)S[C@H](C)[C@H](NC(=O)CNC1=O)C(=O)N[C@@H](CC(N)=O)C(=O)N1C[C@H](O)C[C@H]1C(=O)N[C@@H]([C@@H](C)[C@@H](O)CO)C(=O)N2 [Compound I(ii), (2R,3R)-β-Methyl-Cys^8-Dideoxyamanitin] (cyclo(GIG[X5]N[Hyp][Ile(4R-OH,5-OH)][X2]); thioether 4-8) |  | > 15000 |  | Ki [3]: > 1000 nM
CC[C@H](C)[C@@H]1NC(=O)CNC(=O)[C@H]2Cc3c([nH]c4ccccc34)SC(C)(C)[C@H](NC(=O)CNC1=O)C(=O)N[C@@H](CC(N)=O)C(=O)N1C[C@H](O)C[C@H]1C(=O)N[C@@H]([C@@H](C)[C@@H](O)CO)C(=O)N2 [Compound I(iii), Pen^8-Dideoxyamanitin] (cyclo(GIG[Pen]N[Hyp][Ile(4R-OH,5-OH)][X2]); thioether 4-8) |  | 2700 ± 590 |  | cytotoxicity compared with α-amanitin, in words [2]: intermediately toxic
CC[C@H](C)[C@@H]1NC(=O)CNC(=O)[C@H]2Cc3c([nH]c4ccccc34)SC[C@H](NC(=O)CNC1=O)C(=O)N[C@@H](CC(N)=O)C(=O)N1C[C@H](O)C[C@H]1C(=O)N[C@@H]([C@@H](C)[C@@H](O)CO)C(=O)N2 [Compound I(iv), aza-Gly^7-Dideoxyamanitin] (cyclo(CN[Hyp][Ile(4R-OH,5-OH)][X2]GIG); thioether 1-5) | 260 ± 70 | 170 ± 30 |  | cytotoxicity, in words [1]: increased cytotoxicity; IC50 [4]: 3300 ± 390 nM; cytotoxicity, in words [4]: increased cytotoxicity; IC50 [5]: 5600 ± 780 nM
CC[C@H](C)[C@@H]1NC(=O)CNC(=O)[C@H]2Cc3c([nH]c4ccccc34)SC[C@H](NC(=O)CNC1=O)C(=O)N[C@@H](CC(N)=O)C(=O)N1C[C@H](O)C[C@H]1C(=O)N[C@@H]([C@@H](C)[C@@H](O)CO)C(=O)N2 [Compound I(ix), aza-Gly^5-Dideoxyamanitin] (cyclo(CN[Hyp][Ile(4R-OH,5-OH)][X2]GIG); thioether 1-5) | 210 ± 50 | 1900 ± 520 |  | cytotoxicity compared with α-amanitin, in words [2]: only a two-fold reduction in cytotoxicity
CS[C@H](C)[C@@H]1NC(=O)CNC(=O)[C@H]2Cc3c([nH]c4ccccc34)SC[C@H](NC(=O)CNC1=O)C(=O)N[C@@H](CC(N)=O)C(=O)N1C[C@H](O)C[C@H]1C(=O)N[C@@H]([C@@H](C)[C@@H](O)CO)C(=O)N2 [Compound I(v), Thia-Ile^6-Dideoxyamanitin] (cyclo(CN[Hyp][Ile(4R-OH,5-OH)][X2]G[X3]G); thioether 1-5) | 830 ± 150 | 4400 ± 730 |  | IC50 [4]: 16000 ± 2300 nM; IC50 [5]: > 20000 nM; Pol II / transcription inhibition, in words [3]: high Pol II inhibition
CO[C@H](C)[C@@H]1NC(=O)CNC(=O)[C@H]2Cc3c([nH]c4ccccc34)SC[C@H](NC(=O)CNC1=O)C(=O)N[C@@H](CC(N)=O)C(=O)N1C[C@H](O)C[C@H]1C(=O)N[C@@H]([C@@H](C)[C@@H](O)CO)C(=O)N2 [Compound I(vi), Oxo-Ile^6-Dideoxyamanitin] (cyclo(CN[Hyp][Ile(4R-OH,5-OH)][X2]GT(Me)G); thioether 1-5) |  | > 15000 |  | cytotoxicity compared with α-amanitin, in words [2]: no observable cytotoxicity
CCC(CC)[C@@H]1NC(=O)CNC(=O)[C@H]2Cc3c([nH]c4ccccc34)SC[C@H](NC(=O)CNC1=O)C(=O)N[C@@H](CC(N)=O)C(=O)N1C[C@H](O)C[C@H]1C(=O)N[C@@H]([C@@H](C)[C@@H](O)CO)C(=O)N2 [Compound I(vii), Diethylala^6-Dideoxyamanitin] (cyclo(CN[Hyp][Ile(4R-OH,5-OH)][X2]G[Nva(3-Et)]G); thioether 1-5) | 170 ± 30 | 380 ± 110 |  | 
C[C@H]([C@@H]1NC(=O)[C@@H]2C[C@@H](O)CN2C(=O)[C@H](CC(N)=O)NC(=O)[C@@H]2CSc3[nH]c4ccccc4c3C[C@@H](NC1=O)C(=O)NCC(=O)N[C@@H](C1CCCC1)C(=O)NCC(=O)N2)[C@@H](O)CO [Compound I(viii), Cyclopentylgly^6-Dideoxyamanitin] (cyclo(CN[Hyp][Ile(4R-OH,5-OH)][X2]G[Gly(cPent)]G); thioether 1-5) |  | 1700 ± 270 |  | cytotoxicity compared with α-amanitin, in words [2]: considerably diminished toxicity
CCC(CC)[C@@H]1NC(=O)CNC(=O)[C@H]2Cc3c([nH]c4ccc(O)cc34)SC[C@H](NC(=O)CNC1=O)C(=O)N[C@@H](CC(N)=O)C(=O)N1C[C@H](O)C[C@H]1C(=O)N[C@@H]([C@@H](C)[C@@H](O)CO)C(=O)N2 [Compound I(xi), 5-OH Trp^4, Diethylala^6-Deoxyamanitin] (cyclo(CN[Hyp][Ile(4R-OH,5-OH)][X4]G[Nva(3-Et)]G); thioether 1-5) | 80 ± 10 | 1200 ± 330 |  | 
CCC(CC)[C@@H]1NC(=O)CNC(=O)[C@H]2Cc3c([nH]c4ccccc34)S[C@@H](C)[C@H](NC(=O)CNC1=O)C(=O)N[C@@H](CC(N)=O)C(=O)N1C[C@H](O)C[C@H]1C(=O)N[C@@H]([C@@H](C)[C@@H](O)CO)C(=O)N2 [Compound I(xii), Diethylala^6, (2R,3S)-β-Methyl-Cys^8-Dideoxyamanitin] (cyclo(G[Nva(3-Et)]G[X1]N[Hyp][Ile(4R-OH,5-OH)][X2]); thioether 4-8) | 110 ± 30 | 290 ± 70 |  | cytotoxicity, in words [1]: increased cytotoxicity; toxicity relative to α-amanitin (times / -fold as toxic) [1]: 5; toxicity relative to α-amanitin (times / -fold as toxic) [2]: 2; IC50 [4]: 2400 ± 300 nM; cytotoxicity, in words [4]: increased cytotoxicity; IC50 [5]: 5700 ± 1100 nM
CCC(CC)[C@@H]1NC(=O)CNC(=O)[C@H]2Cc3c([nH]c4ccc(O)cc34)S[C@@H](C)[C@H](NC(=O)CNC1=O)C(=O)N[C@@H](CC(N)=O)C(=O)N1C[C@H](O)C[C@H]1C(=O)N[C@@H]([C@@H](C)[C@@H](O)CO)C(=O)N2 [Compound I(xiii), 5-OH Trp^4, Diethylala^6, (2R,3S)-β-Methyl-Cys^8-Deoxyamanitin] (cyclo(G[Nva(3-Et)]G[X1]N[Hyp][Ile(4R-OH,5-OH)][X4]); thioether 4-8) | 240 ± 50 | 1170 ± 370 |  | 
CC[C@H](C)[C@@H]1NC(=O)CNC(=O)[C@@H]2Cc3c([nH]c4ccccc34)[S+]([O-])C[C@H](NC(=O)CNC1=O)C(=O)N[C@@H](CC(=O)O)C(=O)N1C[C@H](O)C[C@H]1C(=O)N[C@@H]([C@@H](C)[C@@H](O)CO)C(=O)N2 (stereo partly shown) [amanin] |  |  | 0.3 | Ki [7]: 5 nM
CC[C@H](C)[C@@H]1NC(=O)CNC(=O)[C@@H]2Cc3c([nH]c4ccccc34)[S+]([O-])C[C@H](NC(=O)CNC1=O)C(=O)N[C@@H](CC(N)=O)C(=O)N1C[C@H](O)C[C@H]1C(=O)N[C@@H]([C@@H](C)[C@@H](O)CO)C(=O)N2 (stereo partly shown) [amaninamide] |  |  | 20 | Ki [7]: 5 nM
CC[C@H](C)[C@@H]1NC(=O)CNC(=O)[C@@H]2Cc3c([nH]c4cc(O)ccc34)[S+]([O-])C[C@H](NC(=O)CNC1=O)C(=O)N[C@@H](CC(N)=O)C(=O)N1C[C@H](O)C[C@H]1C(=O)N[C@@H]([C@@H](C)CC)C(=O)N2 (stereo partly shown) [amanullin] |  |  | >20 | Ki [7]: 10 nM
CC[C@H](C)[C@@H]1NC(=O)CNC(=O)[C@@H]2Cc3c([nH]c4cc(O)ccc34)[S+]([O-])C[C@H](NC(=O)CNC1=O)C(=O)N[C@@H](CC(=O)O)C(=O)N1CCC[C@H]1C(=O)N[C@@H]([C@@H](C)CC)C(=O)N2 (stereo partly shown) [proamanullin] |  |  | >20 | 
Herceptin |  |  |  | IC50 [8]: > 1000 nM
amanullinic acid |  |  | >20 | 
β-amanitin |  |  | 0.5 | Ki ([7]; read-out: Ki): 2.5 nM
γ-amanitin |  |  | 0.2 | Ki ([7]; read-out: Ki): 5 nM
ε-amanitin |  |  | 0.3 to 0.6 | 
